Laboratory results published in patent publication US20260241049A1, “Radiopharmaceutical Compositions Targeting Glypican-3 and Uses Thereof” (RayzeBio, Inc., priority 2023, published 2026).
Starred links: 1 amine or outer side, 2 acyl side, 3 side chain; linkers in the order of their positions; H or OH if unused. Positions of bridges follow the written chain, without caps; N, C: chain ends. Non-standard residues stand in square brackets, D forms with d. Residues, ends and D or L forms follow the SMILES beside them. Phe(4-(1-Me-pyrazol-4-yl)) = Cn1cc(-c2ccc(C[C@H](N)C(=O)O)cc2)cn1; 3Pal(6-Ph) = N[C@@H](Cc1ccc(-c2ccccc2)nc1)C(=O)O; Phe(4-COOH) = N[C@@H](Cc1ccc(C(=O)O)cc1)C(=O)O; NMe2Nal = CN[C@@H](Cc1ccc2ccccc2c1)C(=O)O; NMeI = CC[C@H](C)[C@H](NC)C(=O)O; NMeQ = CN[C@@H](CCC(N)=O)C(=O)O; NMehCys = CN[C@@H](CCS)C(=O)O; NMeK = CN[C@@H](CCCCN)C(=O)O; NMeC = CN[C@@H](CS)C(=O)O; NMeA = CN[C@@H](C)C(=O)O; CO = O=C([*:1])[*:2]

Tests used:
[1] = target: T1, human Glypican3 (Homo sapiens, UniProt P51654); assay: SPR binding to Glypican-3, Method B-1 (Glypican3 immobilized on CM3 chip, Biacore T200); details: SPR method B-1
T1 construct: purchased R&D systems 2119-GP
T1 sequence (P51654 25-554): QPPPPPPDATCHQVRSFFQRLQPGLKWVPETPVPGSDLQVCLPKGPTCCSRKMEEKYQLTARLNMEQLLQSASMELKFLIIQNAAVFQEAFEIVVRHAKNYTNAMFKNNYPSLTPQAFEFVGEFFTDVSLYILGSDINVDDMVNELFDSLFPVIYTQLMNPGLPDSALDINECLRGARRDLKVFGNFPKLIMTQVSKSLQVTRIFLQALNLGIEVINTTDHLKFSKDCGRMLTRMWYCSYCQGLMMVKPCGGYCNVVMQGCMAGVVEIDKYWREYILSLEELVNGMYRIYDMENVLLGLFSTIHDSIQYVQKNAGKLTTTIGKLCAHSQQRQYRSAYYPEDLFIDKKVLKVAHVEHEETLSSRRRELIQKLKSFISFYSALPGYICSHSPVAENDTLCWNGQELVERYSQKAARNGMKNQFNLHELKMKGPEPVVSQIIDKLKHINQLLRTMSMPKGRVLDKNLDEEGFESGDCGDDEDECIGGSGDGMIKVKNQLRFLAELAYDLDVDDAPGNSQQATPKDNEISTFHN
Protocol: A CM3 sensor chip (Cytiva) was inserted into a Biacore T200 (Cytiva), primed three times with a running buffer: HBS-P+, pH 7.4 (Cytiva), and equilibrated at a flow rate of 30 μL/min. Ligand immobilization was performed at a flow rate of 10 μL/min. 50 μL each of 60 mM EDC solution (Cytiva) and 650 mM NHS solution (Cytiva) were mixed, and then reacted at a flow rate of 10 μL/min for 420 seconds, 150 μL of 0.2 μM human Glypican3 (R&D systems, catalog number: 2119-GP) solution which was prepared by diluting with 10 mM acetic acid solution (pH 5.0), was reacted at a flow rate of 10 μL/min for 420 seconds, and Glypican3 was immobilized on the CM3 sensor chip. After immobilization, 1.0 M ethanolamine aqueous solution (Cytiva) was allowed to react for 420 seconds at a flow rate of 10 μL/min for capping. A peptide lysate prepared to 10 mM in DMSO solution was diluted with running buffer to a final concentration of 10 μM peptide lysate. After that, 5 serial dilution series (100 nM, 50 nM, 25 nM, 10 nM, 5 nM) of peptide solutions were prepared. Using the above samples, peptide kinetics for Glypican3 was obtained by SPR measurement. Kinetics evaluation of Glypican3 was performed by SPR measurements at a flow rate of 10 μL/min, setting the association time to 120 seconds and the disassociation time to 600 seconds.
(§1) The obtained data by Method B-1, Method B-2, Method B-3 and Method B-4 were analyzed by follow. Single Cycle Kinetics was used as the kinetics evaluation model, and curve fitting was performed using Biacore T200 Evaluation Software Version 3.0 (Cytiva). The obtained sensorgram was subjected to curve fitting by the method of least squares and obtained KD values of the macrocyclic peptides in this disclosure for Glypican 3 protein are shown in Table 18.

[2] = target: Human Glypican3-Fc (Homo sapiens, UniProt P51654); assay: SPR binding to Glypican-3, Method B-2 (Glypican3-Fc captured by anti-human IgG (Fc) antibody on CM3 chip); details: SPR method B-2
Human Glypican3-Fc, sequence (P51654 with tags, fused parts or gaps limits assumed): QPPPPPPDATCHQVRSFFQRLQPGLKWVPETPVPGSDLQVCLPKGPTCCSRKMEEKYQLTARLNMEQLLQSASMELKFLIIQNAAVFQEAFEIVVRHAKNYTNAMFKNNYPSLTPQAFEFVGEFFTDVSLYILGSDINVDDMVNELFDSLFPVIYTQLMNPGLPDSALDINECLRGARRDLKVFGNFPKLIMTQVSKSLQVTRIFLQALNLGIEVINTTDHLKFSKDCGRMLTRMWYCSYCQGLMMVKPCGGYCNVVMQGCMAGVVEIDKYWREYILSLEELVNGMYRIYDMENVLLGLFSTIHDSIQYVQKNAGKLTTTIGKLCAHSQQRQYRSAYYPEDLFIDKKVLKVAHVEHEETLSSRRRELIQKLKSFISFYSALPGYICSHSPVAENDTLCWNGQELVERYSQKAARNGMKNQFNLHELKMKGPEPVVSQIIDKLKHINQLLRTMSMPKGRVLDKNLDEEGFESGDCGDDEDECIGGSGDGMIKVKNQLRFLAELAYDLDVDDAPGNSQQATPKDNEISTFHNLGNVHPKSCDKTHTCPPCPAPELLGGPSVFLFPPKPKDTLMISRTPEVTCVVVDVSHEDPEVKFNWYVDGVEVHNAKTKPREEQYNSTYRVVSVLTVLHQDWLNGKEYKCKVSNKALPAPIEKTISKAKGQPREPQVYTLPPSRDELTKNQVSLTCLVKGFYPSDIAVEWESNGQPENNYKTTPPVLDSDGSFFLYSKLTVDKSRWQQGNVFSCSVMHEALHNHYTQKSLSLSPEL
Protocol: A CM3 sensor chip (Cytiva) was inserted into a Biacore T200 (Cytiva), primed three times with a running buffer: HBS-P-+, pH 7.4 (Cytiva), and equilibrated at a flow rate of 30 μL/min. Using the Anti-Fc Capture Kit (Cytiva), 50 LL each of 60 mM EDC solution (Cytiva) and 650 mM NHS solution (Cytiva) were mixed, and then reacted at a flow rate of 10 μL/min for 420 seconds, 150 μL of […] Anti-human IgG (Fc) Antibody solution was prepared by diluting with 10 mM acetic acid solution (pH 5.0), reacted at a flow rate of 10 μL/min for 420 seconds, and immobilized on a CM3 sensor chip. After immobilization, 1.0 M ethanolamine aqueous solution (Cytiva) was allowed to react for 420 seconds at a flow rate of 10 μL/min for capping. Human Glypican3-Fc (ACRO Biosystems, GP3-H5258) was allowed to react for 60 seconds at a flow rate of 10 μL/min. After capturing human Glypican3-Fc, a peptide solution prepared to 10 mM in DMSO solution was diluted with a running buffer to a final concentration of 10 μM. After that, 5 serial dilution series (100 nM, 50 nM, 25 nM, 10 nM, 5 nM) of peptide solutions were prepared. Using the above samples, peptide kinetics for Glypican3 was obtained by SPR measurement. Kinetics evaluation of Glypican3 was performed by SPR measurements at a flow rate of 10 μL/min. setting the association time to 120 seconds and the disassociation time to 600 seconds.
as §1

Row | SMILES | Kd [1] [nM] | Kd [2] [nM]
1 | CC[C@H](C)[C@@H]1NC(=O)[C@H](Cc2ccc(C(=O)O)cc2)NC(=O)[C@H](CCC(N)=O)N(C)C(=O)[C@H](CCC(N)=O)NC(=O)[C@H]([C@@H](C)CC)N(C)C(=O)[C@H](CCCCNC(C)=O)N(C)C(=O)CSC[C@@H](C(N)=O)N(C)C(=O)[C@H](Cc2ccc(-c3cnn(C)c3)cc2)NC(=O)CNC(=O)[C@H](Cc2ccc3ccccc3c2)N(C)C(=O)[C@H](Cc2ccc(C(=O)O)cc2)NC(=O)[C@H]([C@@H](C)CC)NC1=O [Conjugate 2-3] ({CH2CO}-[NMeK](Ac)[NMeI]Q[NMeQ][Phe(4-COOH)]II[Phe(4-COOH)][NMe2Nal]G[Phe(4-(1-Me-pyrazol-4-yl))][NMeC]-NH2; thioether N-12) | 1.2 | 
2 | CC[C@H](C)[C@@H]1NC(=O)[C@H](Cc2ccc(C(=O)O)cc2)NC(=O)[C@H](CCC(N)=O)N(C)C(=O)[C@H](CCCCNC(C)=O)NC(=O)[C@H](CCC(N)=O)N(C)C(=O)[C@H](CCC(N)=O)N(C)C(=O)CSC[C@@H](C(N)=O)N(C)C(=O)[C@H](Cc2ccc(-c3cnn(C)c3)cc2)NC(=O)CNC(=O)[C@H](Cc2ccc3ccccc3c2)N(C)C(=O)[C@H](Cc2ccc(C(=O)O)cc2)NC(=O)[C@H]([C@@H](C)CC)NC1=O [Conjugate 2-11] ({CH2CO}-[NMeQ][NMeQ]K(Ac)[NMeQ][Phe(4-COOH)]II[Phe(4-COOH)][NMe2Nal]G[Phe(4-(1-Me-pyrazol-4-yl))][NMeC]-NH2; thioether N-12) | 2.5 | 
3 | CC[C@H](C)[C@@H]1NC(=O)[C@H]([C@@H](C)OC)NC(=O)[C@H](Cc2ccc(C(=O)O)cc2)NC(=O)[C@H](CCC(N)=O)N(C)C(=O)[C@H](CC(=O)O)NC(=O)[C@H](CCC(N)=O)N(C)C(=O)[C@H](CCC(N)=O)N(C)C(=O)SCC[C@@H](C(N)=O)N(C)C(=O)[C@H](Cc2ccc(-c3cnn(C)c3)cc2)NC(=O)CNC(=O)[C@H](Cc2ccc3ccccc3c2)N(C)C(=O)[C@H](Cc2ccc(C(=O)O)cc2)NC1=O [Conjugate 2-15] ([NMeQ][NMeQ]D[NMeQ][Phe(4-COOH)]T(Me)I[Phe(4-COOH)][NMe2Nal]G[Phe(4-(1-Me-pyrazol-4-yl))][NMehCys]-NH2; linker N-12 via CO) | 1.8 | 

The next lines start with the values.

Row | Kd [1] [nM] | Kd [2] [nM] | SMILES
4 | 1.5 |  | CC[C@H](C)[C@@H]1NC(=O)[C@H](Cc2ccc(C(=O)O)cc2)NC(=O)[C@H](CCC(N)=O)N(C)C(=O)[C@H](CC(=O)O)NC(=O)[C@H]([C@@H](C)CC)N(C)C(=O)[C@H](CCCCNC(C)=O)N(C)C(=O)CSC[C@@H](C(N)=O)N(C)C(=O)[C@H](Cc2ccc(-c3cnn(C)c3)cc2)NC(=O)CNC(=O)[C@H](Cc2ccc3ccccc3c2)N(C)C(=O)[C@H](Cc2ccc(C(=O)O)cc2)NC(=O)[C@H]([C@@H](C)CC)NC1=O [Conjugate 2-2] ({CH2CO}-[NMeK](Ac)[NMeI]D[NMeQ][Phe(4-COOH)]II[Phe(4-COOH)][NMe2Nal]G[Phe(4-(1-Me-pyrazol-4-yl))][NMeC]-NH2; thioether N-12)
5 |  | 1.5 | CC[C@H](C)[C@@H]1NC(=O)[C@H](Cc2ccc(C(=O)O)cc2)NC(=O)[C@H](CCC(N)=O)N(C)C(=O)[C@H](CC(=O)O)NC(=O)[C@H](CCC(N)=O)N(C)C(=O)[C@H](C)N(C)C(=O)CSC[C@@H](C(N)=O)N(C)C(=O)[C@H](Cc2ccc(-c3ccccc3)nc2)NC(=O)CNC(=O)[C@H](Cc2ccc3ccccc3c2)N(C)C(=O)[C@H](Cc2ccc(C(=O)O)cc2)NC(=O)[C@H]([C@@H](C)CC)NC1=O [Conjugate 2-23] ({CH2CO}-[NMeA][NMeQ]D[NMeQ][Phe(4-COOH)]II[Phe(4-COOH)][NMe2Nal]G[3Pal(6-Ph)][NMeC]-NH2; thioether N-12)
